Consider three compounds from US6887869B2, “Mikanolide derivatives, their preparation and therapeutic uses” (Societe de Conseils de Recherches et d'Applications …, priority 2001, dated 2005).

The subject of test [1] is DNA polymerase of E. Coli (Klenow DNA polymerase enzyme). Description: Incorporation of deoxycytidine 5'-[alpha32P]-triphosphate into a DNA in the presence of DNA polymerase in an acellular system. Format: biochemical. Conditions: concentration 100 μg/ml; labelled dCTP, 10 minutes at 37°, vs control. The procedure:
Incorporation of Deoxycytidine 5′-[alpha^32P]-triphosphate into a DNA in the Presence of DNA Polymerase in an Acellular System
Labelling of the DNA is carried out on a DNA fragment which incorporates nucleotides by way of the activity of the DNA polymerase enzyme. From these nucleotides, the dCTP is labelled with radioactive phosphorus (^32P).
Plasmidal DNA (pc DNA 3, invitrogen, Netherlands) is diluted to a concentration of 2 ng in 45 μl of TE solution (10 mM Tris-HCl, pH 8, 1 mM EDTA) and denatured by heating to 100° C. for 10 minutes before being replaced directly in ice. The denatured DNA is placed in the tube which contains the buffer solution of dATP, dGTP, dTTP, the Klenow DNA polymerase enzyme and the random primers (Rediprime II random prime labelling system, RPN 1633, RPN 1634, Amersham pharmacia biotech). 2 μl of Redivue deoxycytidine 5′-[alpha^32P]-triphosphate (250 μCi specific activity Amersham, Orsay, France) is added to start the reaction. The reaction is carried out in the presence or absence of the compound to be tested for 10 minutes at 37°. […] 10 μL is counted in 5 ml of scintillator (Instage1 plus and scintillation counter Packard, Rungis, France). The results are expressed as a percentage of the inhibition of incorporation of the labelled nucleotide in the sample with respect to the control: 100−[(DPM of the sample treated/control DPM)×100].

The subject of another test is HT29 tumor cells. Briefly: Incorporation of tritiated thymidine into DNA of HT29 cells in exponential growth phase. Format: cell-based, human. The settings on record: 3 hours treatment. The procedure: (§1) DU-145 (human prostate cancer cells), HT29 (cancer of the colon) and Mia-PaCa2 (human pancreatic cancer cells) were acquired from the American Tissue Culture Collection (Rockville, Md., USA).
Incorporation of Thymidine Labelled with Tritium into DNA Cells in Exponential Growth Phase
HT29 cells are seeded in 96-well plates (culturPlate-96, Packard, Rungis, France) (4000 cells per well) with the medium (DME, Gibco BRL, Cergy-Pontoise, France) complemented with 10% of foetal calf serum, Gibco BRL, Cergy-Pontoise, France). On day 3, the medium is removed and replaced with medium containing the tritiated thymidine (5′-thymidine TRK.328, 1 mCi, 0.6 μCi/well, Amersham, Orsay, France) with or without the compound. The treatments are carried out for 3 hours. The medium is then removed and the cells are washed twice with 20 μl of PBS (Gibco BRL, Cergy-Pontoise, France). The lysis solution (SDS 1.25%, EDTA 5 mM) is added for 10 minutes at ambient temperature, then 75 μl of scintillating liquid (microscint 40, Packard, Rungis, France) is added. The plates are read using Topcount (Packard, Rungis, France). These tests are carried out in duplicate and the results are expressed with respect to the incorporation of the labelled nucleotide in the sample treated with the compound over the incorporation of the labelled nucleotide in the control sample (sample DPM/control DPM).

In test [2] the test system is DU-145 (human prostate cancer cells). Briefly: Measurement of cell proliferation (WST1), DU-145. Format: cell-based. The settings on record: DU-145, 96 hours treatment, read-out: IC50 inhibitory concentration, proliferation of DU-145 cell lines. As to the method: as §1
(§2) Measurement of Cell Proliferation
(§3) The cells placed in 80 μl of Dulbecco's modified Eagle medium (Gibco-BRL, Cergy-Pontoise, France) completed with 10% of foetal calf serum inactivated by heating (Gibco-BRL, Cergy-Pontoise, France), 50000 units/l of penicillin and 50 mg/l streptomycin (Gibco-BRL, Cergy-Pontoise, France), and 2 mM of glutamine (Gibco-BRL, Cergy-Pontoise, France) were seeded on a 96-well plate on day 0. The cells were treated on day 1 for 96 hours with increasing concentrations of each of the compounds to be tested. At the end of the of this period, quantification of the cell proliferation is evaluated by a calorimetric test based on the cleavage of the tetrazolium salt WST1 by mitochondrial dehydrogenases in viable cells leading to the formation of formazan (Boehringer Mannheim, Meylan, France). These tests are carried out in duplicate with 8 determinations per concentration tested. The products are solubilised in dimethylsulphoxide (DMSO) at 10^−2 M and finally used in culture with 0.5% DMSO.
For orientation: Tetrazolium assays rely on reduction of a dye to a coloured formazan, in cell work by metabolically active cells.

Test [3] has as its system Mia-PaCa2 (human pancreatic cancer cells). Briefly: Measurement of cell proliferation (WST1), Mia-PaCa2. The test is classed as cell-based. Conditions: MIA PaCa-2, Mia-Paca2, 96 hours treatment, read-out: IC50 inhibitory concentration, proliferation of Mia-Paca2 cell lines. The procedure:
as §1, §2, §3

Consider `C[C@H]1C(=O)O[C@H]2C[C@]3(C)O[C@@H]3[C@@H]3O[C@@H]3C3=C[C@@H](OC3=O)[C@@H]21` [Dihydromikanolide, dihydromikanolide, reference compound], for which, in test [1], the “% inhibition of incorporation” value is recorded as 77 ± 11%. Moreover, the “incorporation of tritiated thymidine (sample dpm/control dpm)” value amounted to 0.98 in the test with HT29 tumor cells (25 μg/ml), 0.22 with HT29 tumor cells (50 μg/ml) and 0.14 in the test with HT29 tumor cells (100 μg/ml).

On to `CC1C(=O)OC2CC3(C)OC3C(O[Si](C)(C)C(C)(C)C)C(N(C)C)C3=CC(OC3=O)C21` (stereo not drawn) [Example 16, 11-(tert-butyldimethylsiloxy)-12-dimethylamino-3,8-dimethyl-5,9,15-trioxatetracyclo[11.2.1.0^2,6.0^8,10]hexadec-13(16)-ene-4,14-dione], for which the “% inhibition of incorporation” value in test [1] came to 70 ± 8%. Besides, the results for the “incorporation of tritiated thymidine (sample dpm/control dpm)” value with HT29 tumor cells (25 μg/ml), in the test with HT29 tumor cells (50 μg/ml) and in the test on HT29 tumor cells (100 μg/ml) were 0.71, 0.58 and 0.52, respectively. The IC50 in test [2] and in test [3] was no more than 30 µM each time.

As for `CC1C(=O)OC2CC3(C)OC3C(OC(=O)Nc3csc4ccccc34)C(N(C)C)C3CC(OC3=O)C21` (stereo not drawn) [Example 43, 8-(dimethylamino)-3,10a-dimethyl-2,6-dioxodecahydro-4,7-methenofuro[3,2-c]oxireno[f]oxacycloundecin-9-yl 1-benzothien-3-ylcarbamate], the IC50 in test [2] and in test [3] was no more than 30 µM in each case.
